PubChem BioAssay (NCI)
Values joined by “and” are separate entries in the source; they are usually repeats but may differ in a detail not shown here. Identical values can stand only once.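 All cell lines were grown in 96-well plates and treated with compound for 48 hours. At the GI50, growth is halved. TGI denotes the concentration required for complete inhibition of growth.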

Tests used:
Assay in all cases: NCI anticancer screen, dose series, 48 h
HCT-116 colon = system: HCT-116 colon
NCI-H460 lung = system: NCI-H460 lung
HL-60(TB) leukemia = system: HL-60(TB) leukemia
OVCAR-3 ovarian = system: OVCAR-3 ovarian
SK-MEL-28 melanoma = system: SK-MEL-28 melanoma
HT29 colon = system: HT29 colon
M14 melanoma = system: M14 melanoma
MDA-MB-231 breast = system: MDA-MB-231 breast
KM12 colon = system: KM12 colon
CAKI-1 renal = system: CAKI-1 renal

SMILES | GI50 (HCT-116 colon) [µM] | TGI (HCT-116 colon) [µM] | GI50 (NCI-H460 lung) [µM] | TGI (NCI-H460 lung) [µM] | GI50 (HL-60(TB) leukemia) [µM] | TGI (HL-60(TB) leukemia) [µM] | GI50 (OVCAR-3 ovarian) [µM] | TGI (OVCAR-3 ovarian) [µM] | GI50 (SK-MEL-28 melanoma) [µM] | TGI (SK-MEL-28 melanoma) [µM] | GI50 (HT29 colon) [µM] | TGI (HT29 colon) [µM] | GI50 (M14 melanoma) [µM] | TGI (M14 melanoma) | GI50 (MDA-MB-231 breast) [µM] | TGI (MDA-MB-231 breast) [µM] | GI50 (KM12 colon) [µM] | TGI (KM12 colon) [µM] | TGI (CAKI-1 renal) [µM] | GI50 (CAKI-1 renal) [µM]
COc1cc(-c2n/c(=C\c3c(O)[nH]c4ccccc34)cc3c2=Nc2ccccc2-3)cc(OC)c1OC | 0.392 | 2.44 | 0.334 | 1.76 | 2.16 | 5.03 | 0.506 | 2.6 | 6.43 | > 100 | 0.407 | 2.53 | 0.785 | 4.26 µM | 2.11 | > 28.2 | 2.03 | 16.4 | > 100 | 
CCOC(=O)/C(=C\c1ccc(F)cc1)C(C)=O |  | 91.8 |  | 97.4 |  | 53.2 |  | > 100 |  |  |  | > 100 |  | 60.9 µM |  | 52 |  | 69 | > 100 | 
COc1ccc(-c2nc3sc4c(c3c(=O)[nH]2)CCCC4)c2ccccc12 | 0.371 |  | 0.381 |  | 0.301 | 2.04 |  |  | 0.468 |  |  |  |  | 0.63 µM and 0.135 µM |  | > 100 |  | > 100 |  | 0.45
CO/N=C(/COc1c(-c2ccccc2)oc2ccccc2c1=O)c1ccc(F)cc1 | 39.3 | > 100 |  |  | > 100 | > 100 | 56.7 | > 100 | > 100 | > 100 | > 100 | > 100 | 30.6 | > 100 µM | 20.5 | 53.8 | > 100 | > 100 | > 100 | > 100
O=[N+]([O-])/C=C/c1ccc([N+](=O)[O-])cc1 | 1.52 | 3.08 | 4.57 | 22.6 | 5.38 | 54.8 | 1.84 | 3.28 | 2.74 | 7.57 | 2.07 | 5 | 1.55 | 3.22 µM | 2.71 | 8.73 | 2.25 | 4.71 | 21.1 | 4.16
Cc1cc2c(cc1Br)C1(C)CCC(C)C1(C)O2 (configuration not stated) |  | 29.1 |  | 53.7 |  | 34.1 |  | 53.2 |  | > 100 |  | > 100 |  | > 100 µM |  |  |  | > 100 | > 100 | 
NC(=O)c1c2c(cc3c(=O)c4ccccc4[nH]c13)CCCC2 |  | > 100 |  | > 100 |  | > 100 |  | > 100 |  | > 100 |  | > 100 |  | > 100 µM |  |  |  | > 100 | > 100 | 
CC(C)=CC1CC(C)C2(CCC3(C)CC4C(C(=O)CC4(C)O)/C(C=O)=C\CC32)O1 (configuration not stated) |  | 0.15 |  | 0.283 |  | 0.0576 |  | 0.0503 |  | 0.277 |  | 0.102 |  | 0.311 µM |  | 0.237 |  | 0.262 | 0.192 | 
O=C(/C=C\c1ccc2ccccc2n1)c1cc(Cl)ccc1O | 3.38 | 11.3 | 16 | 42.6 | 3.32 | 11.3 | 5.31 | 17.1 | 18.7 | 49.6 | 4.2 | 31.5 | 4.92 | 17.2 µM | 5.18 | 24.3 | 8.71 | 24.5 | 21.5 | 5.49
NC1=NC(c2ccc(F)cc2)C2=C(N1)c1ccc3ccccc3c1OCC2 (configuration not stated) |  |  | 6.96 | > 100 | > 100 | > 100 | 2.73 | > 100 | 18.6 | > 100 | 4.96 | > 100 | > 100 | > 100 µM | 47.4 | > 100 | 4.45 | > 100 | 70.6 | 12.3
COc1ccc(-n2c3c(c4c(CN(C)C)c(O)c(C)cc42)CCc2ccccc2C3=O)cc1 | 34.4 | > 100 | 69.1 | > 100 | 12.3 | 43.6 | 34.2 | 97.2 |  |  | > 100 | > 100 | 26.9 | 97 µM | 25 | 90.1 | 21.1 | 63.9 | > 100 | 24.5
Cc1ccc(F)cc1NC(=O)c1cc(Cl)ccc1Nc1ccccc1 | > 100 | > 100 | > 100 | > 100 | > 100 | > 100 | > 100 | > 100 | > 100 | > 100 | > 100 | > 100 |  |  | 6.96 | > 100 | > 100 | > 100 | > 100 | > 100
COc1ccc(-c2cc(-c3nnc(SCC(=O)Nc4ccc(C(C)=O)cc4)o3)c3ccccc3n2)cc1 | 2.9 | > 100 | > 100 | > 100 | > 100 | > 100 | 62.6 | > 100 | > 100 | > 100 | > 100 | > 100 | > 100 | > 100 µM | 19.4 | > 100 | > 100 | > 100 |  | 
COc1ccc(-c2csc3c2-n2cccc2C3=O)cc1O | 0.0271 | 17 | 0.0375 | 13.1 | 0.0163 | 0.0955 | < 0.0152 | 0.0434 |  |  | 3.68 | > 78.1 |  |  | 0.0925 | > 100 | 0.0653 | > 100 | > 63.2 | 0.0497
COC(=O)n1c(CBr)c(Br)c2ccccc21 |  | > 100 |  | 74.9 |  | 59.8 |  | 50.9 |  | > 100 |  | > 100 |  | > 100 µM |  |  |  | > 100 | 49.9 | 
O=CN1CCN(C=S)CC1 |  | > 100 |  | > 100 |  | > 100 |  | > 100 |  | > 100 |  | > 100 |  | > 100 µM |  |  |  | > 100 | > 100 | 
Cc1ccc(Oc2nc3ccccc3cc2-c2nnc(Cn3c(COc4ccccc4)nc4ccccc43)o2)cc1 | 0.431 | 1.64 | 10.4 | 24.4 | 2.85 | 7.88 | 2.41 | 6.65 |  |  | 2.02 | 4.43 | 2.33 | 7.4 µM | 1.64 | 4.62 | 2.85 | 11.8 | 14.9 | 2.29
